# Results from US5830770A, “Hapten-protein conjugates for use in detection of organophosphorus compounds” (priority 1993, dated 1998).
# Where two headings read alike, the source gives them in different places.
# Legend:
# [1] = test system: generic antibodies; experiment: Relative inhibition of binding of generic antibodies to hapten conjugate; parameters: species or system rabbit; details: inhibition at 100 μg/ml minus inhibition at 0.1 μg/ml organophosphate
# Protocol: (§1) Assay was carried out in the same manner as Example 5 with the following modifications. Antisera was diluted 1:2000 with 1% BSA in PBST and 100 μl was incubated for 2 hours at 25° C. with 100 μl of each concentration of the unconjugated OP--in this case the generic part--in a microtitration plate. Concentrations of OP ranged from 200 to 0.001 μg ml^-1.
# [2] = test system: antisera from rabbit 21; type: binding; parameters: key: +++: strong; ++: medium; +: weak reaction; poor: slight; -: none; details: antisera 1:2000, 2 hours at 25° C.
# Protocol: (§2) An ELISA was used to screen the antisera for polyclonal antibodies to the generic hapten/conjugate of the invention using the following protocol. Microtitre plates (Costar) were coated with the appropriate hapten conjugate with ovalbumin by diluting that in 0.05M sodium hydrogen carbonate/sodium carbonate buffer (pH 9.6) to give an optimum protein concentration of 1 μg/ml previously determined by chequerboard titration; protein found by Bradford assay. 100 μl was added to each microtitre plate well and the plates placed in a moist chamber overnight, washed 3 times with 0.15 phosphate buffered saline pH7.2 with 0.05% Tween 20[RTM]: PBST), and blotted dry. Blocking was carried out by adding 250 μl per well of 5% skimmed milk for 1 hour at 25° C.
# (§3) After two further washings the coated microplates were stored at -20° C. until required, whereon they were washed once with PBST. Antisera were diluted (1/1000 for general screening or doubling dilutions up to 1/512,000 for titration assays) in PSBT, applied to microtitre wells in triplicate in 50 μl amounts and incubated in a moist chamber at 25° C. for 1 hour (appropriate positive and negative controls were included--PBST, negative rabbit serum and positive serum when it had been produced). Wells were then washed 3 times in PBST and 200 μl of a 1:1500 dilution of swine anti-rabbit immunoglobulin conjugated to horseradish peroxidase (DAKO) was added to each well. Plates were incubated once more for 1 hour at 25° C. then washed 3 times with PBST.
# (§4) Tetramethylbenzidine (TMB) enzyme substrate solution was prepared by adding 400 μl of 6.0 g/l TMB in DMSO to 24.5 ml of 0.1M sodium acetate buffer pH5.5 with 100 μl of 1% H2 O2 and 100 μl added to the wells. The microplates were incubated for 15 minutes in the dark at 25° C. before the reaction was stopped by adding 50 μl of 2.5M H2 SO4 and the absorbance read at 450 nm against air. Results: are given below with those of Example 6.
# as §1
# (§5) Cross reactivity of antisera from rabbits 19, 20 and 21 by inhibition ELISA with the various organophosphorus pesticides is shown in Table 5 in which concentration (μg ml^-1) for 50% inhibition to occur is given together with the diluent in which this is achieved--PBST or % methanol in PBST for figures.
# [3] = test system: antisera from rabbit 19; type: binding; parameters: key: +++: strong; ++: medium; +: weak reaction; poor: slight; -: none; details: antisera 1:2000, 2 hours at 25° C.
# Protocol: as §2, §3, §4, §1, §5
# [4] = test system: antisera from rabbit 20; type: binding; parameters: key to cross reactivity by inhibition ELISA, Rabbit 20: +++: strong; ++: medium; +: weak reaction; poor: slight; -: none; details: for cross reactivity by inhibition ELISA, Rabbit 20: antisera 1:2000, 2 hours at 25° C.; for concentration for 50% inhibition: Rabbit 20
# Protocol: as §2, §3, §4, §1, §5
Structure (SMILES),Relative inhibition of binding of generic antibodies to hapten conjugate as % of hapten + spacer inhibition [1],"cross reactivity by inhibition ELISA, Rabbit 21 [2]","cross reactivity by inhibition ELISA, Rabbit 19 [3]","cross reactivity by inhibition ELISA, Rabbit 20 [4]",concentration for 50% inhibition ([4]; diluent 10% methanol in PBST),concentration for 50% inhibition ([4]; diluent PBST)
"CCOc1cc(OP(=S)(OC)OC)nc(CC)n1 [Etrimfos, etrimfos]",30.8%,poor,-,+,,
O=C(O)CNCP(=O)(O)O [Glyphospate],,-,-,-,,
"CNC(=O)CSP(=S)(OC)OC [Dimethoate, dimethoate]",41.4%,+,-,++,> 150 µg/mL,
"CCOP(=O)(OCC)OC(=CCl)c1ccc(Cl)cc1Cl [Chlorfenvinphos, chlorfenvinphos]",33.4%,+,-,+,,
COP(=S)(OC)Oc1nc(Cl)c(Cl)cc1Cl [Chlorpyrifos-methyl],29.2%,poor,poor,poor,,
"COC(=O)/C(C)=C/OP(=S)(OC)OC [Methacrifos, methacrifos]",89.1%,+,+,+++,,8.2 µg/mL
"COP(=O)(OC)O/C(=C\Cl)c1cc(Cl)c(Cl)cc1Cl [Tetrachlorvinphos, tetrachlorvinphos]",27.2%,poor,-,poor,,
"CCNP(=S)(OC)O/C(C)=C/C(=O)OC(C)C (stereo not shown) [Propetamphos, propetamphos]",75.9%,++,+,+++,36.2 µg/mL,
